Ten compounds from BindingDB's records for doi:10.1124/mol.58.6.1511 (Albert Einstein College of Medicine, 2000) can be followed below.

For test [1], the target named is Solute carrier organic anion transporter family member 2A1 (Homo sapiens, UniProt Q92959).
For test [2], the target named is Prostaglandin F2-alpha receptor (Human, UniProt P43088).
Chain of Prostaglandin F2-alpha receptor (P43088 whole entry): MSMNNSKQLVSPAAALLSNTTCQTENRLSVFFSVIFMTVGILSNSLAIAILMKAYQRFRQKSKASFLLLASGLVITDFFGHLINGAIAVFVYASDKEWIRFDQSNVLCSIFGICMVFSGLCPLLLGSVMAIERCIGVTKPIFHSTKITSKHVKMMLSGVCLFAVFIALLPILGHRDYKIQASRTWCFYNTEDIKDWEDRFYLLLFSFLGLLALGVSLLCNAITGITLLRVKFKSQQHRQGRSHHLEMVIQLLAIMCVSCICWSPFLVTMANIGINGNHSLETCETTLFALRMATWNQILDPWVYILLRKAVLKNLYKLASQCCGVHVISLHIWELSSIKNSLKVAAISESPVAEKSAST

Compound `CCCCC[C@H](O)/C=C/C1[C@H](O)C[C@H](O)[C@@H]1C/C=C\CCCC(=O)O` (stereo partly drawn) [(Z)-7-[(1R,3R,5S)-3,5-Dihydroxy-2-((E)-(S)-3-hydroxy-oct-1-enyl)-cyclopentyl]-hept-5-enoic acid] registered an inhibition constant (Ki) in test [1] of 0.045 µM. This counts as double-digit nanomolar.

`CCCCC[C@@H](O)/C=C/[C@@H]1[C@@H](C/C=C/CCCC(N)=O)[C@@H](O)C[C@H]1O` [AGN 190911]: the figures for the inhibitory constant (Ki) in test [2] and in test [1] were more than 10 µM and 7.3 µM, respectively.

For the compound `CCCCC[C@@H](O)/C=C/[C@@H]1[C@@H](C/C=C/CCCCN)[C@@H](O)C[C@H]1O` [AGN 191088], the Ki in test [2] and in test [1] was more than 10 µM each time.

`CCCCC[C@@H](O)/C=C/[C@@H]1[C@@H](C/C=C/CCCC(=O)NS(C)(=O)=O)[C@@H](O)C[C@H]1O` [AGN 191365]: the results for the inhibition constant (Ki) in test [2] and in test [1] were more than 10 µM and 0.307 µM, respectively.

Take `CCCCC[C@@H](O)/C=C/[C@@H]1[C@@H](C/C=C/CCCc2nnn[nH]2)[C@@H](O)C[C@H]1O` [AGN 191366]: the values for the Ki in test [2] and in test [1] were 8.13 µM and 0.071 µM, respectively.

As to `CCCCC[C@H](/C=C/[C@@H]1[C@@H](C/C=C/CCCC(=O)O)[C@@H](O)C[C@H]1O)OC` [AGN 191995], the Ki in test [2] is 0.228 µM; in test [1], more than 10 µM.

As to `CCCCC[C@H](/C=C/[C@@H]1[C@@H](C/C=C/CCCC(N)=O)[C@@H](O)C[C@H]1O)OC` [AGN 192151], the inhibitory constant (Ki) in test [2] and in test [1] was more than 10 µM each time.

With `CCCCC[C@@H](O)/C=C/[C@@H]1[C@@H](C/C=C/CCCS(=O)(=O)NC(C)=O)[C@@H](O)C[C@H]1O` [AGN 194394], the Ki in test [2] is more than 10 µM; in test [1], 0.034 µM.

As to `CC(C)OC(=O)CCC/C=C\C[C@@H]1[C@@H](/C=C/[C@@H](O)CCc2ccccc2)[C@H](O)C[C@@H]1O` [CAS_130209-76-6], the Ki in test [2] was 0.018 µM; in test [1], 0.168 µM.

`CCCCCC(O)C=CC1C(O)CC(O)C1CC=CCCCC(=O)OC(C)C` (stereo not drawn) [PGF2 Alpha, 1-isopropyl ester]: the Ki in test [2] stood at 3.2 µM; in test [1] it was 5 µM.

A word on the Ki: it is the dissociation constant of the complex between target and ligand, obtained from inhibition or displacement.
